# Test results: PubChem BioAssay AID1919009 (Molecular Pharmacology Branch, DTP, NCI, 2023)
# System: K24384-001-R-PDC complex spheroid growth
# Assay: Anticancer human tumor K24384-001-R-PDC patient-derived pancreatic adenocarcinoma cell line growth inhibition [AhR]
# Conditions: for IC50: curve of first compound; for viability, T/C: stronger effect = lower value
# Summary of the method: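 Spheroids combined tumor cells with HUVEC endothelial cells and human MSCs as stroma. AhR antagonists were paired with standard or investigational drugs, each dosed in half-log steps down from near clinical Cmax, or from 10 microM where Cmax was unknown.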
# [1] = second compound 0.1 µM, first compound 0.0316 µM
# [2] = second compound 0.1 µM, first compound 0.1 µM
# [3] = second compound 0.1 µM, first compound 0.316 µM
# [4] = second compound 0.1 µM, first compound 1 µM
# [5] = second compound 0.1 µM, first compound 3.16 µM
# [6] = second compound 0.1 µM, first compound 10 µM
# [7] = second compound 0.316 µM, first compound 0.0316 µM
# [8] = second compound 0.316 µM, first compound 0.1 µM
# [9] = second compound 0.316 µM, first compound 0.316 µM
# [10] = second compound 0.316 µM, first compound 1 µM
# [11] = second compound 0.316 µM, first compound 3.16 µM
# [12] = second compound 0.316 µM, first compound 10 µM
# [13] = second compound 1 µM, first compound 0.0316 µM
# [14] = second compound 1 µM, first compound 0.1 µM
# [15] = second compound 1 µM, first compound 0.316 µM
# [16] = second compound 1 µM, first compound 1 µM
# [17] = second compound 1 µM, first compound 3.16 µM
# [18] = second compound 1 µM, first compound 10 µM
# [19] = second compound 3.16 µM, first compound 0.0316 µM
# [20] = second compound 3.16 µM, first compound 0.1 µM
# [21] = second compound 3.16 µM, first compound 0.316 µM
# [22] = second compound 3.16 µM, first compound 1 µM
# [23] = second compound 3.16 µM, first compound 3.16 µM
# [24] = second compound 3.16 µM, first compound 10 µM
# [25] = second compound 10 µM, first compound 0.0316 µM
# [26] = second compound 10 µM, first compound 0.1 µM
# [27] = second compound 10 µM, first compound 0.316 µM
# [28] = second compound 10 µM, first compound 1 µM
# [29] = second compound 10 µM, first compound 3.16 µM
# [30] = second compound 10 µM, first compound 10 µM
# 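Wherever viability, T/C is given: percent of DMSO vehicle-treated spheroid viability set as 100%.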
structure (smiles),measurement,setting,value
CC(C)c1c(-c2ccccc2)nc2c(C#N)c[nH]n2c1=O + Cc1ccccc1N=Nc1ccc(NC(=O)c2ccnn2C)c(C)c1,IC50,second compound 0.1 µM,> 10000 nM
same,IC50,second compound 0.316 µM,> 10000 nM
same,IC50,second compound 1 µM,> 10000 nM
same,IC50,second compound 3.16 µM,> 10000 nM
same,IC50,second compound 10 µM,> 10000 nM
same,"viability, T/C",[1],114%
same,"viability, T/C",[2],121%
same,"viability, T/C",[3],123%
same,"viability, T/C",[4],108%
same,"viability, T/C",[5],88.8%
same,"viability, T/C",[6],86.2%
same,"viability, T/C",[7],112%
same,"viability, T/C",[8],124%
same,"viability, T/C",[9],121%
same,"viability, T/C",[10],128%
same,"viability, T/C",[11],104%
same,"viability, T/C",[12],89.7%
same,"viability, T/C",[13],117%
same,"viability, T/C",[14],109%
same,"viability, T/C",[15],113%
same,"viability, T/C",[16],103%
same,"viability, T/C",[17],105%
same,"viability, T/C",[18],109%
same,"viability, T/C",[19],98.2%
same,"viability, T/C",[20],109%
same,"viability, T/C",[21],124%
same,"viability, T/C",[22],114%
same,"viability, T/C",[23],90.8%
same,"viability, T/C",[24],122%
same,"viability, T/C",[25],132%
same,"viability, T/C",[26],141%
same,"viability, T/C",[27],114%
same,"viability, T/C",[28],119%
same,"viability, T/C",[29],126%
same,"viability, T/C",[30],119%
CC1COCCN1c1cc(-c2ccnn2C)c2ccnc(-c3ccn[nH]3)c2n1 (stereo not given) + Cc1ccccc1N=Nc1ccc(NC(=O)c2ccnn2C)c(C)c1,IC50,second compound 0.1 µM,103 nM
same,IC50,second compound 0.316 µM,105 nM
same,IC50,second compound 1 µM,94.8 nM
same,IC50,second compound 3.16 µM,99.1 nM
same,IC50,second compound 10 µM,168 nM
same,"viability, T/C","second compound 0.1 µM, first compound 0.00316 µM",101%
same,"viability, T/C","second compound 0.1 µM, first compound 0.01 µM",107%
same,"viability, T/C",[1],82.2%
same,"viability, T/C",[2],52.3%
same,"viability, T/C",[3],29.6%
same,"viability, T/C",[4],28.2%
same,"viability, T/C","second compound 0.316 µM, first compound 0.00316 µM",114%
same,"viability, T/C","second compound 0.316 µM, first compound 0.01 µM",120%
same,"viability, T/C",[7],80.5%
same,"viability, T/C",[8],54.2%
same,"viability, T/C",[9],32.5%
same,"viability, T/C",[10],26.7%
same,"viability, T/C","second compound 1 µM, first compound 0.00316 µM",103%
same,"viability, T/C","second compound 1 µM, first compound 0.01 µM",99.5%
same,"viability, T/C",[13],102%
same,"viability, T/C",[14],47.5%
same,"viability, T/C",[15],29.1%
same,"viability, T/C",[16],28.6%
same,"viability, T/C","second compound 3.16 µM, first compound 0.00316 µM",101%
same,"viability, T/C","second compound 3.16 µM, first compound 0.01 µM",92.1%
same,"viability, T/C",[19],82.1%
same,"viability, T/C",[20],48.7%
same,"viability, T/C",[21],33.4%
same,"viability, T/C",[22],28.5%
same,"viability, T/C","second compound 10 µM, first compound 0.00316 µM",129%
same,"viability, T/C","second compound 10 µM, first compound 0.01 µM",128%
same,"viability, T/C",[25],108%
same,"viability, T/C",[26],57.1%
same,"viability, T/C",[27],39.7%
same,"viability, T/C",[28],42.4%
CC1COCCN1c1cc(C2(S(C)(=N)=O)CC2)nc(-c2ccnc3[nH]ccc23)n1 (stereo not given) + Cc1ccccc1N=Nc1ccc(NC(=O)c2ccnn2C)c(C)c1,IC50,second compound 0.1 µM,2100 nM
same,IC50,second compound 0.316 µM,2360 nM
same,IC50,second compound 1 µM,2140 nM
same,IC50,second compound 3.16 µM,1550 nM
same,IC50,second compound 10 µM,2750 nM
same,"viability, T/C",[1],102%
same,"viability, T/C",[2],126%
same,"viability, T/C",[3],105%
same,"viability, T/C",[4],70.1%
same,"viability, T/C",[5],38.7%
same,"viability, T/C",[6],35.5%
same,"viability, T/C",[7],111%
same,"viability, T/C",[8],115%
same,"viability, T/C",[9],97.2%
same,"viability, T/C",[10],76.2%
same,"viability, T/C",[11],39.5%
same,"viability, T/C",[12],30.9%
same,"viability, T/C",[13],95.2%
same,"viability, T/C",[14],106%
same,"viability, T/C",[15],90.5%
same,"viability, T/C",[16],71.6%
same,"viability, T/C",[17],38.8%
same,"viability, T/C",[18],29.2%
same,"viability, T/C",[19],76.4%
same,"viability, T/C",[20],116%
same,"viability, T/C",[21],95.8%
same,"viability, T/C",[22],60.4%
same,"viability, T/C",[23],35.5%
same,"viability, T/C",[24],27.4%
same,"viability, T/C",[25],109%
same,"viability, T/C",[26],97.1%
same,"viability, T/C",[27],98.5%
same,"viability, T/C",[28],75.8%
same,"viability, T/C",[29],45.8%
same,"viability, T/C",[30],38.2%
COc1ccc([C@@H](O)c2cc(-c3ncnc4cc(N5CCOCC5)ccc34)c(F)cc2Cl)nn1 + Cc1ccccc1N=Nc1ccc(NC(=O)c2ccnn2C)c(C)c1,IC50,second compound 0.1 µM,5910 nM
same,IC50,second compound 0.316 µM,4850 nM
same,IC50,second compound 1 µM,3610 nM
same,IC50,second compound 3.16 µM,2540 nM
same,IC50,second compound 10 µM,3680 nM
same,"viability, T/C",[1],99.7%
same,"viability, T/C",[2],99%
same,"viability, T/C",[3],82.2%
same,"viability, T/C",[4],66.7%
same,"viability, T/C",[5],62.5%
same,"viability, T/C",[6],42.1%
same,"viability, T/C",[7],99.3%
same,"viability, T/C",[8],90.5%
same,"viability, T/C",[9],80.4%
same,"viability, T/C",[10],82%
same,"viability, T/C",[11],53.8%
same,"viability, T/C",[12],37.2%
same,"viability, T/C",[13],96.1%
same,"viability, T/C",[14],95.7%
same,"viability, T/C",[15],86.1%
same,"viability, T/C",[16],70.8%
same,"viability, T/C",[17],51.9%
same,"viability, T/C",[18],37.8%
same,"viability, T/C",[19],99.9%
same,"viability, T/C",[20],96.6%
same,"viability, T/C",[21],81%
same,"viability, T/C",[22],64.2%
same,"viability, T/C",[23],47.2%
same,"viability, T/C",[24],34.9%
same,"viability, T/C",[25],97%
same,"viability, T/C",[26],103%
same,"viability, T/C",[27],82.5%
same,"viability, T/C",[28],78.7%
same,"viability, T/C",[29],50.9%
same,"viability, T/C",[30],32.7%
O=C(C=Cn1cnc(-c2cc(C(F)(F)F)cc(C(F)(F)F)c2)n1)NNc1cnccn1 + Cc1ccccc1N=Nc1ccc(NC(=O)c2ccnn2C)c(C)c1,IC50,second compound 0.1 µM,238 nM
same,IC50,second compound 0.316 µM,144 nM
same,IC50,second compound 1 µM,158 nM
same,IC50,second compound 3.16 µM,149 nM
same,IC50,second compound 10 µM,132 nM
same,"viability, T/C","second compound 0.1 µM, first compound 0.00949 µM",101%
same,"viability, T/C","second compound 0.1 µM, first compound 0.03 µM",104%
same,"viability, T/C","second compound 0.1 µM, first compound 0.0949 µM",68.2%
same,"viability, T/C","second compound 0.1 µM, first compound 0.3 µM",47.9%
same,"viability, T/C","second compound 0.1 µM, first compound 0.949 µM",27.1%
same,"viability, T/C","second compound 0.1 µM, first compound 3 µM",22.9%
same,"viability, T/C","second compound 0.316 µM, first compound 0.00949 µM",88%
same,"viability, T/C","second compound 0.316 µM, first compound 0.03 µM",106%
same,"viability, T/C","second compound 0.316 µM, first compound 0.0949 µM",62.3%
same,"viability, T/C","second compound 0.316 µM, first compound 0.3 µM",32.6%
same,"viability, T/C","second compound 0.316 µM, first compound 0.949 µM",30.2%
same,"viability, T/C","second compound 0.316 µM, first compound 3 µM",22.1%
same,"viability, T/C","second compound 1 µM, first compound 0.00949 µM",97.4%
same,"viability, T/C","second compound 1 µM, first compound 0.03 µM",89%
same,"viability, T/C","second compound 1 µM, first compound 0.0949 µM",62.3%
same,"viability, T/C","second compound 1 µM, first compound 0.3 µM",34.2%
same,"viability, T/C","second compound 1 µM, first compound 0.949 µM",26.5%
same,"viability, T/C","second compound 1 µM, first compound 3 µM",23%
same,"viability, T/C","second compound 3.16 µM, first compound 0.00949 µM",76.9%
same,"viability, T/C","second compound 3.16 µM, first compound 0.03 µM",77.6%
same,"viability, T/C","second compound 3.16 µM, first compound 0.0949 µM",59.3%
same,"viability, T/C","second compound 3.16 µM, first compound 0.3 µM",34%
same,"viability, T/C","second compound 3.16 µM, first compound 0.949 µM",27.9%
same,"viability, T/C","second compound 3.16 µM, first compound 3 µM",19.7%
same,"viability, T/C","second compound 10 µM, first compound 0.00949 µM",86.3%
same,"viability, T/C","second compound 10 µM, first compound 0.03 µM",79.4%
same,"viability, T/C","second compound 10 µM, first compound 0.0949 µM",57.5%
same,"viability, T/C","second compound 10 µM, first compound 0.3 µM",31.4%
same,"viability, T/C","second compound 10 µM, first compound 0.949 µM",32.9%
same,"viability, T/C","second compound 10 µM, first compound 3 µM",25.8%
